Marks after values point to notes of the source that are not given here.
Key:
Format in all cases: in vivo, nude/nude mice
SW1573 cells = assay: SW1573 tumor bearing mice, single agents and combination; conditions: for tumor growth inhibition: Day 22, Compound 478 100 mg/kg or RMC-4550 30 mg/kg p.o. daily; for Average Tumor Volume: Compound 478 100 mg/kg, RMC-4550 30 mg/kg
Experimental: (§1) Immunocompromised nude/nude mice are inoculated in the right hind flank with cells or patient derived tumor samples harboring a KRas G12C mutation. When tumor volumes reach between 200-400 mm^3 in size, the mice are divided into four groups of 5-12 mice each. The first group is administered vehicle only. […] The fourth group is administered the single agent dose of the KRas G12C inhibitor in combination with the single agent dose of the SHP-2 inhibitor. […] Tumor volumes are measured using a caliper every two-three days and tumor volumes are calculated by the formula: 0.5×[…].
(§2) 20 nude/nude mice per study were inoculated in the right hind limb with 5×10^6 SW1573 cells, KYSE410 cells or H358 cells.

H358 cells = assay: H358 tumor bearing mice, single agents and combination
Experimental: as §1, §2

KYSE410 cells = assay: KYSE410 tumor bearing mice, single agents and combination; conditions: for tumor growth inhibition: Day 22, Compound 478 100 mg/kg or RMC-4550 30 mg/kg p.o. daily; for Average Tumor Volume: Compound 478 100 mg/kg, RMC-4550 30 mg/kg
Experimental: as §1, §2

H2122 cells = assay: H2122 tumor bearing mice, single agents and combination; conditions: for tumor growth inhibition: Day 29, Compound 478 100 mg/kg or RMC-4550 30 mg/kg p.o. daily; for Average Tumor Volume: Compound 478 100 mg/kg, RMC-4550 30 mg/kg
Experimental: as §1
Similarly, 25 nude/nude mice were inoculated in the right hind limb with 5×10^6 H2122 cells.

[1] = Study Day 0, p.o. daily, 5 mice
[2] = Study Day 0, p.o. daily, Compound 478 100 mg/kg, RMC-4550 30 mg/kg, 5 mice
[3] = Study Day 4, p.o. daily, Compound 478 100 mg/kg, RMC-4550 30 mg/kg
[4] = Study Day 6, p.o. daily, Compound 478 100 mg/kg, RMC-4550 30 mg/kg
[5] = Study Day 8, p.o. daily, Compound 478 100 mg/kg, RMC-4550 30 mg/kg
[6] = Study Day 12, p.o. daily, Compound 478 100 mg/kg, RMC-4550 30 mg/kg
[7] = Study Day 15, p.o. daily, Compound 478 100 mg/kg, RMC-4550 30 mg/kg
[8] = Study Day 18, p.o. daily, Compound 478 100 mg/kg, RMC-4550 30 mg/kg
[9] = Study Day 20, p.o. daily, Compound 478 100 mg/kg, RMC-4550 30 mg/kg
[10] = Study Day 22, p.o. daily, Compound 478 100 mg/kg, RMC-4550 30 mg/kg, RMC-4550 single agent: dosing was stopped after Day 22

C=C(F)C(=O)N1CCN(c2nc(OC[C@@H]3CCCN3C)nc3c2CCN(c2cccc4cccc(Cl)c24)C3)C[C@@H]1CC#N [Compound 478]
tumor growth inhibition (SW1573 cells): 81% | Average Tumor Volume (SW1573 cells; [1]): 335 mm^3 | Average Tumor Volume (SW1573 cells; Study Day 2, p.o. daily): 281 mm^3 | Average Tumor Volume (SW1573 cells; Study Day 4, p.o. daily): 318 mm^3 | Average Tumor Volume (SW1573 cells; Study Day 9, p.o. daily): 336 mm^3 | Average Tumor Volume (SW1573 cells; Study Day 14, p.o. daily): 363 mm^3 | Average Tumor Volume (SW1573 cells; Study Day 21, p.o. daily): 419 mm^3 | Average Tumor Volume (SW1573 cells; Study Day 22, p.o. daily): 433 mm^3 | tumor regression (H358 cells; Day 22, Compound 478 100 mg/kg, alone or with RMC-4550 30 mg/kg, p.o. daily): 68% | Average Tumor Volume (H358 cells; [2]): 335 mm^3 | Average Tumor Volume (H358 cells; [3]): 277 mm^3 | Average Tumor Volume (H358 cells; [4]): 244 mm^3 | Average Tumor Volume (H358 cells; [5]): 200 mm^3 | Average Tumor Volume (H358 cells; [6]): 156 mm^3 | Average Tumor Volume (H358 cells; [7]): 133 mm^3 | Average Tumor Volume (H358 cells; [8]): 120 mm^3 | Average Tumor Volume (H358 cells; [9]): 113 mm^3 | Average Tumor Volume (H358 cells; [10]): 109 mm^3 | Average Tumor Volume (H358 cells; Study Day 25, p.o. daily, Compound 478 100 mg/kg, RMC-4550 30 mg/kg): 90 mm^3 | Average Tumor Volume (H358 cells; Study Day 27, p.o. daily, Compound 478 100 mg/kg, RMC-4550 30 mg/kg): 92 mm^3 | Average Tumor Volume (H358 cells; Study Day 29, Compound 478 100 mg/kg, RMC-4550 30 mg/kg p.o.): 81 mm^3 | Average Tumor Volume (H358 cells; Study Day 32, Compound 478 100 mg/kg, RMC-4550 30 mg/kg p.o.): 82 mm^3 | Average Tumor Volume (H358 cells; Study Day 34, Compound 478 100 mg/kg, RMC-4550 30 mg/kg p.o.): 84 mm^3 | Average Tumor Volume (H358 cells; Study Day 36, Compound 478 100 mg/kg, RMC-4550 30 mg/kg p.o.): 81 mm^3 | Average Tumor Volume (H358 cells; Study Day 39, Compound 478 100 mg/kg, RMC-4550 30 mg/kg p.o.): 73 mm^3 | Average Tumor Volume (H358 cells; Study Day 41, Compound 478 100 mg/kg, RMC-4550 30 mg/kg p.o.): 58 mm^3 | tumor growth inhibition (KYSE410 cells): 93% | Average Tumor Volume (KYSE410 cells; [1]): 312 mm^3 | Average Tumor Volume (KYSE410 cells; Study Day 2, p.o. daily): 320 mm^3 | Average Tumor Volume (KYSE410 cells; Study Day 4, p.o. daily): 302 mm^3 | Average Tumor Volume (KYSE410 cells; Study Day 7, p.o. daily): 281 mm^3 | Average Tumor Volume (KYSE410 cells; Study Day 9, p.o. daily): 265 mm^3 | Average Tumor Volume (KYSE410 cells; Study Day 11, p.o. daily): 277 mm^3 | Average Tumor Volume (KYSE410 cells; Study Day 14, p.o. daily): 340 mm^3 | Average Tumor Volume (KYSE410 cells; Study Day 18, p.o. daily): 349 mm^3 | Average Tumor Volume (KYSE410 cells; Study Day 21, p.o. daily): 384 mm^3 | Average Tumor Volume (KYSE410 cells; Study Day 22, p.o. daily): 359 mm^3 | tumor growth inhibition (H2122 cells): 93% | Average Tumor Volume (H2122 cells; Study Day 11, p.o. daily): 382 mm^3 | Average Tumor Volume (H2122 cells; Study Day 21, p.o. daily): 430 mm^3

Cc1nc(N2CCC3(CC2)CO[C@@H](C)[C@H]3N)c(CO)nc1-c1cccc(Cl)c1Cl [RMC-4550]
tumor growth inhibition (SW1573 cells): 68% | Average Tumor Volume (SW1573 cells; [1]): 336 mm^3 | Average Tumor Volume (SW1573 cells; Study Day 2, p.o. daily): 280 mm^3 | Average Tumor Volume (SW1573 cells; Study Day 4, p.o. daily): 286 mm^3 | Average Tumor Volume (SW1573 cells; Study Day 7, p.o. daily): 336 mm^3 | Average Tumor Volume (SW1573 cells; Study Day 9, p.o. daily): 305 mm^3 | Average Tumor Volume (SW1573 cells; Study Day 11, p.o. daily): 326 mm^3 | Average Tumor Volume (SW1573 cells; Study Day 14, p.o. daily): 418 mm^3 | Average Tumor Volume (SW1573 cells; Study Day 16, p.o. daily): 421 mm^3 | Average Tumor Volume (SW1573 cells; Study Day 18, p.o. daily): 375 mm^3 | Average Tumor Volume (SW1573 cells; Study Day 21, p.o. daily): 392 mm^3 | Average Tumor Volume (SW1573 cells; Study Day 22, p.o. daily): 510 mm^3 | tumor growth inhibition (H358 cells; Day 22, RMC-4550 30 mg/kg p.o. daily): 22% | Average Tumor Volume (H358 cells; [2]): 333 mm^3 | Average Tumor Volume (H358 cells; [3]): 336 mm^3 | Average Tumor Volume (H358 cells; [4]): 343 mm^3 | Average Tumor Volume (H358 cells; [5]): 372 mm^3 | Average Tumor Volume (H358 cells; [6]): 388 mm^3 | Average Tumor Volume (H358 cells; [7]): 399 mm^3 | Average Tumor Volume (H358 cells; [8]): 422 mm^3 | Average Tumor Volume (H358 cells; [9]): 454 mm^3 | Average Tumor Volume (H358 cells; [10]): 492‡ mm^3 | tumor growth inhibition (KYSE410 cells): 90% | Average Tumor Volume (KYSE410 cells; [1]): 314 mm^3 | Average Tumor Volume (KYSE410 cells; Study Day 2, p.o. daily): 311 mm^3 | Average Tumor Volume (KYSE410 cells; Study Day 4, p.o. daily): 316 mm^3 | Average Tumor Volume (KYSE410 cells; Study Day 7, p.o. daily): 299 mm^3 | Average Tumor Volume (KYSE410 cells; Study Day 9, p.o. daily): 316 mm^3 | Average Tumor Volume (KYSE410 cells; Study Day 11, p.o. daily): 309 mm^3 | Average Tumor Volume (KYSE410 cells; Study Day 14, p.o. daily): 309 mm^3 | Average Tumor Volume (KYSE410 cells; Study Day 18, p.o. daily): 303 mm^3 | Average Tumor Volume (KYSE410 cells; Study Day 21, p.o. daily): 372 mm^3 | Average Tumor Volume (KYSE410 cells; Study Day 22, p.o. daily): 377 mm^3 | tumor growth inhibition (H2122 cells): 47% | Average Tumor Volume (H2122 cells; [1]): 350 mm^3 | Average Tumor Volume (H2122 cells; Study Day 4, p.o. daily): 515 mm^3 | Average Tumor Volume (H2122 cells; Study Day 6, p.o. daily): 578 mm^3 | Average Tumor Volume (H2122 cells; Study Day 8, p.o. daily): 614 mm^3 | Average Tumor Volume (H2122 cells; Study Day 11, p.o. daily): 683 mm^3 | Average Tumor Volume (H2122 cells; Study Day 13, p.o. daily): 750 mm^3 | Average Tumor Volume (H2122 cells; Study Day 15, p.o. daily): 856 mm^3 | Average Tumor Volume (H2122 cells; Study Day 18, p.o. daily): 880 mm^3 | Average Tumor Volume (H2122 cells; Study Day 21, p.o. daily): 916 mm^3 | Average Tumor Volume (H2122 cells; Study Day 24, p.o. daily): 1026 mm^3 | Average Tumor Volume (H2122 cells; Study Day 27, p.o. daily): 1137 mm^3 | Average Tumor Volume (H2122 cells; Study Day 29, p.o. daily): 1166 mm^3
